Test results reported in PubChem BioAssay (NCI).
Several values for one entry are separate records, joined by “and”; a condition that tells them apart may be missing. Identical values can stand only once.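 These data come from cells grown in 96-well plates and exposed to compound for 48 hours at five concentrations. GI50 marks 50% less growth. TGI denotes the concentration required for complete inhibition of growth.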

Experiments:
Assay in all cases: NCI-60 cell line screen, 48 h
BT-549 breast = system: BT-549 breast
COLO 205 colon = system: COLO 205 colon
DU-145 prostate = system: DU-145 prostate
KM12 colon = system: KM12 colon
MDA-MB-231 breast = system: MDA-MB-231 breast
MOLT-4 leukemia = system: MOLT-4 leukemia
NCI-H23 lung = system: NCI-H23 lung
NCI/ADR-RES ovarian = system: NCI/ADR-RES ovarian
SN12C renal = system: SN12C renal
U251 CNS = system: U251 CNS

Structure (SMILES) | GI50 (BT-549 breast) | TGI (BT-549 breast) [µM] | GI50 (COLO 205 colon) | TGI (COLO 205 colon) [µM] | GI50 (DU-145 prostate) | TGI (DU-145 prostate) [µM] | GI50 (KM12 colon) | TGI (KM12 colon) [µM] | GI50 (MDA-MB-231 breast) | TGI (MDA-MB-231 breast) [µM] | GI50 (MOLT-4 leukemia) | TGI (MOLT-4 leukemia) [µM] | GI50 (NCI-H23 lung) | TGI (NCI-H23 lung) [µM] | GI50 (NCI/ADR-RES ovarian) | TGI (NCI/ADR-RES ovarian) [µM] | GI50 (SN12C renal) | TGI (SN12C renal) [µM] | GI50 (U251 CNS) | TGI (U251 CNS) [µM]
COc1cc(/C=C/c2cc(/C=C/c3ccc(O)c(OC)c3)n(C(=O)Nc3ccc(C)cc3)n2)ccc1O | 0.306 µM | 2.34 | 1.91 µM | 3.51 | 0.448 µM | 2.32 | 0.345 µM | 3.18 | 1.46 µM | 23 | 0.291 µM | 1.06 | 0.586 µM | 3.99 | 0.429 µM | > 100 | 0.408 µM | > 29.9 | 0.422 µM | 3.48
Cc1cccc(Oc2ccc(Nc3ncnc4ccc(NC(=O)CN(C)C)cc34)cc2Cl)c1 | 2.4 µM | 8.45 | 1.71 µM | 3.48 | 2.14 µM | 10.8 | 2 µM | 4.09 | 1.72 µM | 3.57 | 2.37 µM | 6.82 | 2.95 µM | 11.6 | 2.83 µM | 14.2 | 1.34 µM | 3.13 | 1.68 µM | 3.29
C/C(=C\c1csc(C)n1)[C@@H]1C[C@@H]2O[C@]2(C)CCC[C@H](C)[C@H](O)[C@@H](C)C(=O)C(C)(C)[C@@H](O)CC(=O)N1 | 0.000187 µM | 0.000416 | 0.000182 µM | 0.000438 | 0.000166 µM | 0.000254 | 0.000141 µM | 0.000354 | 0.000312 µM | 0.000479 | 0.000115 µM | 0.000214 | 0.00019 µM | 0.000412 | 0.000206 µM | 0.000412 | 0.000214 µM | 0.000418 | 0.000147 µM | 0.000391
CCCCCCCCCCCCOC1C(C(COC2OC(C(O)CO)C3OC(C)(C)OC23)OC(=O)Nc2ccccc2)OC2OC(C)(C)OC21 (centres undefined) | 10.5 µM | 23.8 | 5.51 µM | 16.6 | 10 µM | 22.8 | 2.99 µM | 8.76 | 8.7 µM | 21.1 | 0.127 µM | 5.14 | 7.39 µM | 19.6 | 6.04 µM | 18.4 | 4.89 µM | 16.6 | 5.44 µM | 18
O=C1c2ccccc2-c2c1c1c(O)cccc1n2Cc1ccccc1 | 20.5 µM | 56.1 | 47.4 µM | > 100 | 11.9 µM | 64.7 | 15.8 µM | 84.9 | > 100 µM | > 100 | > 100 µM | > 100 | 5.67 µM | 29.7 | 6.5 µM | 33.6 | 14.1 µM | > 100 | 15.2 µM | 67.1
CC[C@]12C=CCN3CC[C@@]4(c5ccc(OC)cc5N(C)[C@H]4[C@@](O)(C(=O)OC)[C@@H]1OC(=O)CCCN1CCN(CCCC(=O)O[C@@H]4[C@]5(CC)C=CCN6CC[C@@]7(c8ccc(OC)cc8N(C)[C@H]7[C@@]4(O)C(=O)OC)[C@@H]65)CC1)[C@@H]32 | 1.78 µM | 3.33 | 1.67 µM | 3.25 | 0.701 µM | 1.99 | 0.985 µM | 2.31 | 0.665 µM | 2.02 | 0.483 µM | 1.87 | 1.59 µM | 3.13 | 1.45 µM | 3.17 | 1.14 µM | 2.55 | 1.35 µM | 2.86
O=S(=O)(Nc1ccccc1)c1ccc(C2CC3(Cl)C(Cl)=C(Cl)C2(Cl)C3(Cl)Cl)cc1 (centres undefined) | 2.46 µM | 5.85 | 1.98 µM | 3.48 | 3.58 µM | 10.1 | 2.15 µM | 4.12 | 3.44 µM | 11.3 | 2.5 µM | 6.84 | 2.8 µM | 7.35 | 2.95 µM | 7.98 | 1.71 µM | 3.3 | 2.25 µM | 5.52
CNCc1cccc2c1OCCOCCOCCNS(=O)(=O)c1ccc(cc1)-c1cnc(N)c(n1)C(=O)N2 | 1.27 µM | 8.14 | 1.02 µM | 2.44 | 1.24 µM | 3.36 | 1.22 µM | 2.98 | 1.38 µM | 3.61 | 0.557 µM | 7.68 | 2.22 µM | 7.72 | 84.3 µM | > 100 | 1.22 µM | 3.79 | 0.772 µM | 2.23
C#CCCCCCC(=O)N[C@H]1C=C[C@@H]2/C=C(C)/C=C/[C@@H](C)[C@H]([C@H](C)[C@H](O)[C@@H](C)NC(C)=O)OC(=O)/C=C/C=C(C)\C=C\[C@]2(C)C1 | < 0.004 µM | > 40 | 0.00414 µM | 4.06 | 0.0157 µM | > 40 | 0.00501 µM | > 40 | < 0.004 µM | < 0.004 | 6.79 µM | > 40 | 0.0942 µM | > 40 | 0.0258 µM | > 40 | < 0.004 µM | > 40 | < 0.004 µM | > 40
CC(=O)O[C@H]([C@H](OC(C)=O)[C@H](C)OC(C)=O)[C@@H](/C=C/[C@H]1CC=CC(=O)O1)OC(C)=O | 21.9 µM | 72.6 | 37.1 µM | > 100 | 38.2 µM | > 100 | > 100 µM | > 100 | > 100 µM | > 100 | 72.7 µM | > 100 | 66.6 µM | > 100 | > 100 µM | > 100 | 83.3 µM | > 100 | > 100 µM | > 100
Cn1cc(-c2ccc3c(c2)ncn3-c2cc(NS(=O)(=O)C3CC3)cc(-c3ccc(F)cc3F)c2)cn1 | 4.22 µM | 56.7 | 24.8 µM | > 100 | 21.2 µM | > 100 | 4.96 µM | > 100 | 5.61 µM | > 100 | 2.8 µM | > 100 | 20.6 µM | > 100 | 13.6 µM | > 100 | 2.99 µM | > 100 | 3.77 µM | > 100
COc1cc(/C=C/C(=O)c2nc3cc(F)ccc3nc2C)cc(OC)c1OC | 8.12 µM | > 100 | 7.56 µM | > 100 | 3.09 µM | > 100 | 3.49 µM | > 100 | 8.49 µM | > 100 | 1.99 µM | > 22.3 | > 47.9 µM | > 100 | 14.2 µM | > 91.1 | 6.3 µM | > 100 | 3.54 µM | > 100
CN(c1ccccc1)c1c2ccccc2nc2[nH]c3ccccc3c12 | 4.36 µM | 13.1 | 3.45 µM | 16.1 | 1.44 µM | 8.76 | 2.24 µM | 7.4 | 1.93 µM | 4.63 | 0.841 µM | > 29.6 | 6.4 µM | 28.7 | 7.79 µM | > 47.8 | 1.68 µM | 5.06 | 1.68 µM | > 25.5
Cc1ccc(-c2nc([P+](c3ccccc3)(c3ccccc3)c3ccccc3)c(N3CCOCC3)o2)cc1 | 0.381 µM | 5.14 | 0.343 µM | 1.68 | 0.472 µM | 10.9 | 0.368 µM | 1.82 | 0.399 µM | 4.93 | 0.499 µM | 3.27 | 0.456 µM | 7.45 | 21.9 µM | > 100 | 0.335 µM | 4.16 | 0.313 µM | 11.9
CNS(=O)(=O)Nc1nccc(Cc2c(C)c3ccc(Oc4ncccn4)cc3oc2=O)c1F | 24.2 µM and > 10 µM | > 100 | 0.0176 µM and 0.00703 µM | > 100 | 39 µM and > 10 µM | > 100 | 0.467 µM and 0.367 µM | > 100 | 0.549 µM and 0.313 µM | > 100 | 53.4 µM and > 10 µM | > 100 | 0.061 µM and 0.148 µM | > 100 | 20.2 µM and > 10 µM | > 100 | 13.1 µM and > 8.08 µM | > 100 | 17.4 µM and > 10 µM | > 100
Nc1cc(C(F)(F)F)c(-c2nc(N3CCOCC3)nc(N3CCOCC3)n2)cn1 | 0.265 µM | 3.84 | 0.265 µM | 10 | 0.475 µM | > 100 | 0.835 µM | 59.9 | 0.703 µM | 40.6 | 0.426 µM | 39.8 | 0.446 µM | > 100 |  | > 23.2 | 0.416 µM | > 48.1 | 1.22 µM | 44.2
O=C1[C@H](Cc2ccc(O)cc2)N2C(=O)CCN(C(=O)NCc3ccccc3)[C@H]2CN1Cc1cccc2ccccc12 | 3.01 µM | 22.6 | 0.748 µM | 2.76 | 4.55 µM | 46.5 | 3.1 µM | 15.3 | 0.605 µM | 3.6 | 1.67 µM | 54.1 | 4.05 µM | 34.5 | 43.5 µM | > 100 | 4.18 µM | > 100 | 0.985 µM | 18.6
O=C(CC1(O)C(=O)Nc2c(Cl)cc(Cl)cc21)c1cccc([N+](=O)[O-])c1 (centres undefined) |  | > 100 |  | > 61.7 |  | > 100 |  | > 100 |  | 64.7 |  | 51.5 |  | 52.3 |  | > 100 |  | 58.1 |  | > 70.8
COc1cc(NC(=O)COc2ccccc2)c(C(N)=O)cc1OC | 0.77 µM | > 100 | 0.453 µM | 5.13 | 0.914 µM | > 100 | 0.442 µM | > 100 | 2.39 µM | 42.4 | 2.91 µM | > 100 | 1.32 µM | 20.4 | 0.487 µM | 11.7 | 3.12 µM | > 100 | 0.777 µM | 17.9
